From patent US20150305333A1, “USE OF GLUCOSAMINE AMIDES AS PLANT GROWTH AND YIELD ENHANCERS” (PIONEER HI-BRED INTERNATIONAL, INC., priority 2012, published 2015)

Test system: corn seeds
Experiment: Petri dish seed germination assay, corn
Format: in vivo
Method: A series of Petri dish seed assays was conducted to evaluate the effects NPG on the seed germination rates of corn, soybean, and canola seeds subjected to cold stress, salt stress and non-stressed conditions (salt stress only for canola). Assays were performed with ten replications of ten seeds/plate (100 total seeds). NPG was applied to seeds at the specified concentrations prior to being placed in Petri plates. Seeds designated for Salt Stress Experiments 1 & 2 were placed in Petri dishes containing a 100 mM NaCl solution and incubated at 21° C.-22° C. in the dark. Cold stress Petri dishes were incubated at 15° C. in the dark. Untreated Controls were incubated at 21° C.-22° C. in the dark as were seeds utilized in the separately conducted non-stressed germination assays. Data was recorded as percent germination at designated times after plating. Statistical analyses were performed using one-way Anova and Kruskal-Wallis one-way analysis of variance on rank combined with Dunn's all pairwise multiple comparison procedure (α=0.05).

How did the “Corn Seed Germination” value (Salt Stress (100 mM NaCl) Experiment 1, 10^−6M, 30 HAP) turn out when “Methyl 2-deoxy-2-N-(hexadece-9,10-cis-eneoyl)-β-D-glucopyranoside [NPG]” was run?
Its value is 34a %.

And the “Corn Seed Germination” value (Salt Stress (100 mM NaCl) Experiment 1, 10^−6M, 40 HAP)?
The value was 83a %.

And the “Corn Seed Germination” value (Salt Stress (100 mM NaCl) Experiment 1, 10^−6M, 48 HAP)?
The value was 96a %.

What about the “Corn Seed Germination” value (Salt Stress (100 mM NaCl) Experiment 1, 10^−7M, 30 HAP) of the same substance?
Its value is 23a %.

And the “Corn Seed Germination” value (Salt Stress (100 mM NaCl) Experiment 1, 10^−7M, 40 HAP)?
Its value is 68a %.

What about the “Corn Seed Germination” value (Salt Stress (100 mM NaCl) Experiment 1, 10^−7M, 48 HAP) of the same substance?
Its value is 91a %.
